# Source: BindingDB's records for doi:10.1016/0960-894X(96)00287-9 (1996)
# Assay: Compound was tested for inhibition of [125I]eledoisin radioligand binding to NK3 receptor from gerbil cortex
row,IC50 [nM],Structure (SMILES)
1,10000,"Cc1cc(C)cc(C(=O)N2CC[C@H](NCc3cnc4ccccc4c3)C[C@H]2Cc2ccccc2)c1 [{(2R,4S)-2-Benzyl-4-[(quinolin-3-ylmethyl)-amino]-piperidin-1-yl}-(3,5-dimethyl-phenyl)-methanone]"

# Assay: Compound was tested for inhibition of NK1 receptor from gerbil midbrain; NT means not tested
row,Structure (SMILES),IC50 [nM]
1,"O=C(Cc1ccccc1)N1CC[C@H](NCc2ccnc3ccccc23)C[C@H]1Cc1ccccc1 [1-{(2R,4S)-2-Benzyl-4-[(quinolin-4-ylmethyl)-amino]-piperidin-1-yl}-2-phenyl-ethanone]",3300
2,"Cc1cc(C)cc(C(=O)N2CC[C@H](NCc3ccccc3)C[C@H]2Cc2ccccc2)c1 [((2R,4S)-2-Benzyl-4-benzylamino-piperidin-1-yl)-(3,5-dimethyl-phenyl)-methanone]",220
3,"O=C(c1cc(Cl)cc(Cl)c1)N1CC[C@H](N(Cc2ccnc3ccccc23)C(=O)C(F)(F)F)C[C@H]1Cc1ccccc1 [N-[(2R,4S)-2-Benzyl-1-(3,5-dichloro-benzoyl)-piperidin-4-yl]-2,2,2-trifluoro-N-quinolin-4-ylmethyl-acetamide]",600
4,"O=S(=O)(c1cc(C(F)(F)F)cc(C(F)(F)F)c1)N1CC[C@H](NCc2ccnc3ccccc23)C[C@H]1Cc1ccccc1 [[(2R,4S)-2-Benzyl-1-(3,5-bis-trifluoromethyl-benzenesulfonyl)-piperidin-4-yl]-quinolin-4-ylmethyl-amine]",> 10000
5,"FC(F)(F)c1cc(CN2CC[C@H](NCc3ccnc4ccccc34)C[C@H]2Cc2ccccc2)cc(C(F)(F)F)c1 [[(2R,4S)-2-Benzyl-1-(3,5-bis-trifluoromethyl-benzyl)-piperidin-4-yl]-quinolin-4-ylmethyl-amine]",880
6,"CN(Cc1ccnc2ccccc12)[C@H]1CCN(C(=O)c2cc(Cl)cc(Cl)c2)[C@H](Cc2ccccc2)C1 [[(2R,4S)-2-Benzyl-4-(methyl-quinolin-4-ylmethyl-amino)-piperidin-1-yl]-(3,5-dichloro-phenyl)-methanone]",390
7,"Cc1cc(C)cc(C(=O)N2CC[C@H](NCc3ccncc3)C[C@H]2Cc2ccccc2)c1 [{(2R,4S)-2-Benzyl-4-[(pyridin-4-ylmethyl)-amino]-piperidin-1-yl}-(3,5-dimethyl-phenyl)-methanone]",210
8,"O=C(c1cc(O)cc(O)c1)N1CC[C@H](NCc2ccnc3ccccc23)C[C@H]1Cc1ccccc1 [{(2R,4S)-2-Benzyl-4-[(quinolin-4-ylmethyl)-amino]-piperidin-1-yl}-(3,5-dihydroxy-phenyl)-methanone]",520
9,"O=C(c1ccc2ccccc2c1)N1CC[C@H](NCc2ccnc3ccccc23)C[C@H]1Cc1ccccc1 [{(2R,4S)-2-Benzyl-4-[(quinolin-4-ylmethyl)-amino]-piperidin-1-yl}-naphthalen-2-yl-methanone]",700

# Second part, the compound after the results:
row,IC50 [nM],Structure (SMILES)
1,20,"CC(C)NC(=O)N[C@H]1CCN(C(=O)c2cc(C(F)(F)F)cc(C(F)(F)F)c2)[C@H](Cc2ccccc2)C1 [1-[(2R,4S)-2-Benzyl-1-(3,5-bis-trifluoromethyl-benzoyl)-piperidin-4-yl]-3-isopropyl-urea]"
2,72,"O=C(Nc1ccccc1)N[C@H]1CCN(C(=O)c2cc(Cl)cc(Cl)c2)[C@H](Cc2ccccc2)C1 [1-[(2R,4S)-2-Benzyl-1-(3,5-dichloro-benzoyl)-piperidin-4-yl]-3-phenyl-urea]"
3,62,"NCC(=O)N[C@H]1CCN(C(=O)c2cc(C(F)(F)F)cc(C(F)(F)F)c2)[C@H](Cc2ccccc2)C1 [2-Amino-N-[(2R,4S)-2-benzyl-1-(3,5-bis-trifluoromethyl-benzoyl)-piperidin-4-yl]-acetamide]"
4,10,"NC(=O)CN[C@H]1CCN(C(=O)c2cc(C(F)(F)F)cc(C(F)(F)F)c2)[C@H](Cc2ccccc2)C1 [2-[(2R,4S)-2-Benzyl-1-(3,5-bis-trifluoromethyl-benzoyl)-piperidin-4-ylamino]-acetamide]"
5,60,"O=C(Cc1ccccc1)N[C@H]1CCN(C(=O)c2cc(Cl)cc(Cl)c2)[C@H](Cc2ccccc2)C1 [N-[(2R,4S)-2-Benzyl-1-(3,5-dichloro-benzoyl)-piperidin-4-yl]-2-phenyl-acetamide]"
6,12,"COc1cc(CC(=O)N[C@H]2CCN(C(=O)c3cc(C)cc(C)c3)[C@H](Cc3ccccc3)C2)cc(OC)c1 [N-[(2R,4S)-2-Benzyl-1-(3,5-dimethyl-benzoyl)-piperidin-4-yl]-2-(3,5-dimethoxy-phenyl)-acetamide]"
7,11,"CN(C)CCCOC(=O)N[C@H]1CCN(C(=O)c2cc(C(F)(F)F)cc(C(F)(F)F)c2)[C@H](Cc2ccccc2)C1 [[(2R,4S)-2-Benzyl-1-(3,5-bis-trifluoromethyl-benzoyl)-piperidin-4-yl]-carbamic acid 3-dimethylamino-propyl ester]"
8,19,"Cc1cc(C)cc(C(=O)N2CC[C@H](NCc3cc4ccccc4cn3)C[C@H]2Cc2ccccc2)c1 [{(2R,4S)-2-Benzyl-4-[(isoquinolin-3-ylmethyl)-amino]-piperidin-1-yl}-(3,5-dimethyl-phenyl)-methanone]"
9,17,"O=C(c1cc(C(F)(F)F)cc(C(F)(F)F)c1)N1CC[C@H](NCc2ccnc3ccccc23)C[C@H]1Cc1ccccc1 [{(2R,4S)-2-Benzyl-4-[(quinolin-4-ylmethyl)-amino]-piperidin-1-yl}-(3,5-bis-trifluoromethyl-phenyl)-methanone]"
10,24,"O=C(c1cc(Br)cc(Br)c1)N1CC[C@H](NCc2ccnc3ccccc23)C[C@H]1Cc1ccccc1 [{(2R,4S)-2-Benzyl-4-[(quinolin-4-ylmethyl)-amino]-piperidin-1-yl}-(3,5-dibromo-phenyl)-methanone]"
11,26,"O=C(c1cc(Cl)cc(Cl)c1)N1CC[C@H](NCc2ccnc3ccccc23)C[C@H]1Cc1ccccc1 [{(2R,4S)-2-Benzyl-4-[(quinolin-4-ylmethyl)-amino]-piperidin-1-yl}-(3,5-dichloro-phenyl)-methanone]"
12,92,"COc1cc(OC)cc(C(=O)N2CC[C@H](NCc3ccnc4ccccc34)C[C@H]2Cc2ccccc2)c1 [{(2R,4S)-2-Benzyl-4-[(quinolin-4-ylmethyl)-amino]-piperidin-1-yl}-(3,5-dimethoxy-phenyl)-methanone]"
13,54,"O=C(c1cccc(Cl)c1)N1CC[C@H](NCc2ccnc3ccccc23)C[C@H]1Cc1ccccc1 [{(2R,4S)-2-Benzyl-4-[(quinolin-4-ylmethyl)-amino]-piperidin-1-yl}-(3-chloro-phenyl)-methanone]"
14,110,"O=C(c1cccc2ccccc12)N1CC[C@H](NCc2ccnc3ccccc23)C[C@H]1Cc1ccccc1 [{(2R,4S)-2-Benzyl-4-[(quinolin-4-ylmethyl)-amino]-piperidin-1-yl}-naphthalen-1-yl-methanone]"

# Assay: Inhibition of [3H]-SP radioligand binding to NK1 receptor from bovine retina
row,IC50 [nM],Structure (SMILES)
1,30,"Cc1cc(C)cc(C(=O)N2CC[C@H](NCc3cnc4ccccc4c3)C[C@H]2Cc2ccccc2)c1 [{(2R,4S)-2-Benzyl-4-[(quinolin-3-ylmethyl)-amino]-piperidin-1-yl}-(3,5-dimethyl-phenyl)-methanone]"
